Laboratory results reported in ChEMBL document CHEMBL1150330, “Muscarinic antagonists with multiple stereocenters: Synthesis, affinity profile and functional activity of isomeric 1-methyl-2-(2,2-alkylaryl-1,3-oxathiolan-5-yl)pyrrolidine sulfoxide derivatives” (Bioorg Med Chem, 2008).

Experiments:
[1] = Antagonist activity against muscarinic M4 receptor in guinea pig lung strip assessed as effect on electrically-stimulated contraction; assay type: functional, Cavia porcellus
[2] = target: Muscarinic acetylcholine receptor M3 (Homo sapiens, UniProt P20309); assay: Displacement of [3H]NMS from human muscarinic M3 receptor expressed in CHO cells; assay type: cell-based
Muscarinic acetylcholine receptor M3, sequence (P20309 whole entry): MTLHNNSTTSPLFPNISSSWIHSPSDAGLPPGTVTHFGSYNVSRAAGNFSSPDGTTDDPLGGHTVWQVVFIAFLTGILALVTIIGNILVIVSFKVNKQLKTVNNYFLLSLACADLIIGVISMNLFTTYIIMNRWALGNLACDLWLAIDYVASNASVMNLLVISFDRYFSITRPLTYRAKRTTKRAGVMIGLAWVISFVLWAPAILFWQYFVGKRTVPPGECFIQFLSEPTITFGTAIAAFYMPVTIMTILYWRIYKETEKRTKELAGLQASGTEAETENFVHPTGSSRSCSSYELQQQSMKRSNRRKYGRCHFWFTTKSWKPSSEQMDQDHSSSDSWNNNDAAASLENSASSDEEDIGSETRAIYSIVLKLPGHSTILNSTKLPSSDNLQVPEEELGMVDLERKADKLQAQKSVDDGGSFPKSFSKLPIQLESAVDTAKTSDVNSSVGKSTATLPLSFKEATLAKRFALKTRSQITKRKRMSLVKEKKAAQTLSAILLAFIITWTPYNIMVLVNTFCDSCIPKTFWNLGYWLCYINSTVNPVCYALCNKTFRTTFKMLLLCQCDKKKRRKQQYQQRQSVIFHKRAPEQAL

[3] = target: T1, Muscarinic acetylcholine receptor M5 (Homo sapiens, UniProt P08912); assay: Displacement of [3H]NMS from human muscarinic M5 receptor expressed in CHO cells; assay type: cell-based
T1 sequence (P08912 whole entry): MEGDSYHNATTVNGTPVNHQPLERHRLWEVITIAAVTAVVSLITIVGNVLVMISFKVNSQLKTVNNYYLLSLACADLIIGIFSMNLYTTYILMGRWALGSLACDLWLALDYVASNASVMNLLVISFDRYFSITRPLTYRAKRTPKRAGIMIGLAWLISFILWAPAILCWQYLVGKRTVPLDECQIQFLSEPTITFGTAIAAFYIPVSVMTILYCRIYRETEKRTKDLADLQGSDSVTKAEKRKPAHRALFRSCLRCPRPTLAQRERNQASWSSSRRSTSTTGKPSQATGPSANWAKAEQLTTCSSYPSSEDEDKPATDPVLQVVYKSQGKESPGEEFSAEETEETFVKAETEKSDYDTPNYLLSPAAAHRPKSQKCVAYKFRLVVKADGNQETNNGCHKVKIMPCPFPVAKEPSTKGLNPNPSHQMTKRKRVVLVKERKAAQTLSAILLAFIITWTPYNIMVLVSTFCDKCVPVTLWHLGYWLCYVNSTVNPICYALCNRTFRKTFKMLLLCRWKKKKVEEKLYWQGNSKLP

[4] = Antagonist activity against muscarinic M2 receptor in guinea pig atria assessed as effect on electrically-stimulated atria; assay type: functional, Cavia porcellus
[5] = target: T2, Muscarinic acetylcholine receptor M1 (Homo sapiens, UniProt P11229); assay: Displacement of [3H]NMS from human muscarinic M1 receptor expressed in CHO cells; assay type: cell-based
T2 sequence (P11229 whole entry): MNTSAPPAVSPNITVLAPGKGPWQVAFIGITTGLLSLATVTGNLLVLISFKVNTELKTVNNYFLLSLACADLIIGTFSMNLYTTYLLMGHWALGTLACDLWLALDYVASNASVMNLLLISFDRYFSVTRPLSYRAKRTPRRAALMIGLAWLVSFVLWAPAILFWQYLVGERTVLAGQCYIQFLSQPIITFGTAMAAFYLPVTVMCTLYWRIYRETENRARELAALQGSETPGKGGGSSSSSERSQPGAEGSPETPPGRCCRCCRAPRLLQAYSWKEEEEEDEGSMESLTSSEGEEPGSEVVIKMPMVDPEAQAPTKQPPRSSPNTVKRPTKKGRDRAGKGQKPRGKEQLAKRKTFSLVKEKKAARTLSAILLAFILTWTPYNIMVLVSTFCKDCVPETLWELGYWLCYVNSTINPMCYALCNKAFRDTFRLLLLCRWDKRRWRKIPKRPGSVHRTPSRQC

[6] = target: T3, Muscarinic acetylcholine receptor M4 (Homo sapiens, UniProt P08173); assay: Displacement of [3H]NMS from human muscarinic M4 receptor expressed in CHO cells; assay type: cell-based
T3 sequence (P08173 whole entry): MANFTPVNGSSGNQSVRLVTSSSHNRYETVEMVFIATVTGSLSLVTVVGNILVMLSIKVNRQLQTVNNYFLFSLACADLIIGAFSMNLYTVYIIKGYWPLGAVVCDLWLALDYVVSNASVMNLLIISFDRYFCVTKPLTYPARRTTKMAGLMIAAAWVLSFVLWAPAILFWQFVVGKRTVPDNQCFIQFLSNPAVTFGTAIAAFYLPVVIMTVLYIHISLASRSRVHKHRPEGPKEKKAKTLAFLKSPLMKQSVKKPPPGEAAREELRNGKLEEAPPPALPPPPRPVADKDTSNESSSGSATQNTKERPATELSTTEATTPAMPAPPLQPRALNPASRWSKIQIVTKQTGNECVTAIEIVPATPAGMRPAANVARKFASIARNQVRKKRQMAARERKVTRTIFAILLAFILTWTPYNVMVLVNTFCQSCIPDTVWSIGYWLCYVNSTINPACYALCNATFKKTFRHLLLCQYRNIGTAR

[7] = Antagonist activity against muscarinic M3 receptor in guinea pig ileum assessed as effect on ileum tension; assay type: functional, Cavia porcellus
[8] = target: T4, Muscarinic acetylcholine receptor M2 (Homo sapiens, UniProt P08172); assay: Displacement of [3H]NMS from human muscarinic M2 receptor expressed in CHO cells; assay type: cell-based
T4 sequence (P08172 whole entry): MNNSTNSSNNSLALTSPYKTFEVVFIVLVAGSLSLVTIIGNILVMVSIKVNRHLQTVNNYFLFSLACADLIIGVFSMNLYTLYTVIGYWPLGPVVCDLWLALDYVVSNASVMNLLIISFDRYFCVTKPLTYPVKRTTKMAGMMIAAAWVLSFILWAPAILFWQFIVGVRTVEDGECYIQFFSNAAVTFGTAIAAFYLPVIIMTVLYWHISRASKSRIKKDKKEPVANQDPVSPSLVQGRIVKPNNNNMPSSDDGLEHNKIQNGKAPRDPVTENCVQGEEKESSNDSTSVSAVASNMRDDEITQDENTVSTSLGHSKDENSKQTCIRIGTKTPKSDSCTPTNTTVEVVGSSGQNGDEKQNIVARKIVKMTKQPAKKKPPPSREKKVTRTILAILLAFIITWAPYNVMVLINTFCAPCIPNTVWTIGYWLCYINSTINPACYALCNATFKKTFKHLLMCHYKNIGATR

C[N+](C)(C)C[C@@H]1C[S@](=O)[C@@](c2ccccc2)(C2CCCCC2)O1.[I-]
pKb [1]: 5.24
Ki [2]: 34.7 nM
Ki [3]: 141 nM
pKb [4]: 7.52
Ki [5]: 21.9 nM
Ki [6]: 95.5 nM
pKb [7]: 7.64
Ki [8]: 74.1 nM

CN1CCC[C@H]1[C@H]1C[S+]([O-])C(c2ccccc2)(c2ccccc2)O1 (stereo in doubt; (+)-4)
pKb [1]: 5.29
Ki [2]: 468 nM
Ki [3]: 513 nM
pKb [4]: 6
Ki [5]: 110 nM
Ki [6]: 1020 nM
pKb [7]: 6.55
Ki [8]: 562 nM

CN1CCC[C@@H]1[C@@H]1C[S+]([O-])C(c2ccccc2)(c2ccccc2)O1 (stereo in doubt; (+)-5)
pKb [1]: 5.63
Ki [2]: 282 nM
Ki [3]: 339 nM
pKb [4]: 7.1
Ki [5]: 110 nM
Ki [6]: 316 nM
pKb [7]: 7.17
Ki [8]: 39.8 nM

CN1CCC[C@H]1[C@H]1C[S+]([O-])[C@@](c2ccccc2)(C2CCCCC2)O1 (stereo in doubt; (+)-6)
pKb [1]: <5
Ki [2]: 389 nM
Ki [3]: 525 nM
pKb [4]: 5.48
Ki [5]: 155 nM
Ki [6]: 447 nM
pKb [7]: 6.43
Ki [8]: 1020 nM

CN1CCC[C@H]1[C@H]1C[S+]([O-])[C@@](c2ccccc2)(C2CCCCC2)O1 (stereo in doubt; (+)-7)
pKb [1]: 5.2
Ki [2]: 18.2 nM
Ki [3]: 25.1 nM
pKb [4]: 7.56
Ki [5]: 10 nM
Ki [6]: 33.1 nM
pKb [7]: 7.96
Ki [8]: 64.6 nM

CN1CCC[C@@H]1[C@@H]1C[S+]([O-])[C@@](c2ccccc2)(C2CCCCC2)O1 (stereo in doubt; (+)-8)
pKb [1]: <5
Ki [2]: 24 nM
Ki [3]: 30.2 nM
pKb [4]: 7.05
Ki [5]: 38 nM
Ki [6]: 93.3 nM
pKb [7]: 7.71
Ki [8]: 66.1 nM

CN1CCC[C@@H]1[C@@H]1C[S+]([O-])[C@@](c2ccccc2)(C2CCCCC2)O1 (stereo in doubt; (+)-9)
pKb [1]: 6.16
Ki [2]: 200 nM
Ki [3]: 288 nM
pKb [4]: 7.72
Ki [5]: 107 nM
Ki [6]: 257 nM
pKb [7]: 7.59
Ki [8]: 38 nM

C[N+]1(C)CCC[C@H]1[C@H]1C[S+]([O-])C(c2ccccc2)(c2ccccc2)O1.[I-] (stereo in doubt; (+)-10)
pKb [1]: 5.54
Ki [2]: 209 nM
Ki [3]: 91.2 nM
pKb [4]: 7.2
Ki [5]: 29.5 nM
Ki [6]: 209 nM
pKb [7]: 6.95
Ki [8]: 141 nM

C[N+]1(C)CCC[C@@H]1[C@@H]1C[S+]([O-])C(c2ccccc2)(c2ccccc2)O1.[I-] (stereo in doubt; (+)-11)
pKb [1]: 5.25
Ki [2]: 417 nM
Ki [3]: 813 nM
pKb [4]: 7
Ki [5]: 324 nM
Ki [6]: 1170 nM
pKb [7]: 7.62
Ki [8]: 195 nM

C[N+]1(C)CCC[C@H]1[C@H]1C[S+]([O-])[C@@](c2ccccc2)(C2CCCCC2)O1.[I-] (stereo in doubt; (+)-12)
pKb [1]: 5.41
Ki [2]: 26.9 nM
Ki [3]: 23.4 nM
pKb [4]: 6.57
Ki [5]: 12 nM
Ki [6]: 58.9 nM
pKb [7]: 7.03
Ki [8]: 70.8 nM

C[N+]1(C)CCC[C@H]1[C@H]1C[S+]([O-])[C@@](c2ccccc2)(C2CCCCC2)O1.[I-] (stereo in doubt; (+)-13)
pKb [1]: 6.37
Ki [2]: 4.17 nM
Ki [3]: 3.02 nM
pKb [4]: 7.81
Ki [5]: 3.02 nM
Ki [6]: 15.8 nM
pKb [7]: 8.67
Ki [8]: 17.8 nM

C[N+]1(C)CCC[C@@H]1[C@@H]1C[S+]([O-])[C@@](c2ccccc2)(C2CCCCC2)O1.[I-] (stereo in doubt; (+)-14)
pKb [1]: 7.59
Ki [2]: 6.92 nM
Ki [3]: 14.1 nM
pKb [4]: 7.98
Ki [5]: 6.92 nM
Ki [6]: 19.1 nM
pKb [7]: 9
Ki [8]: 21.4 nM

C[N+]1(C)CCC[C@@H]1[C@@H]1C[S+]([O-])[C@@](c2ccccc2)(C2CCCCC2)O1.[I-] (stereo in doubt; (+)-15)
pKb [1]: 6.48
Ki [2]: 162 nM
Ki [3]: 224 nM
pKb [4]: 6.97
Ki [5]: 93.3 nM
Ki [6]: 302 nM
pKb [7]: 7.1
Ki [8]: 77.6 nM

CN1CCC[C@@H]1[C@@H]1C[S+]([O-])C(c2ccccc2)(c2ccccc2)O1 (stereo in doubt; (-)-4)
pKb [1]: 5.75
Ki [2]: 513 nM
Ki [3]: 355 nM
pKb [4]: 7.27
Ki [5]: 74.1 nM
Ki [6]: 513 nM
pKb [7]: 6.95
Ki [8]: 229 nM

CN1CCC[C@H]1[C@H]1C[S+]([O-])C(c2ccccc2)(c2ccccc2)O1 (stereo in doubt; (-)-5)
pKb [1]: <5
Ki [2]: 302 nM
Ki [3]: 229 nM
pKb [4]: 6.42
Ki [5]: 145 nM
Ki [6]: 407 nM
pKb [7]: 6.99
Ki [8]: 219 nM

CN1CCC[C@@H]1[C@@H]1C[S+]([O-])[C@](c2ccccc2)(C2CCCCC2)O1 (stereo in doubt; (-)-6)
pKb [1]: 7.24
Ki [2]: 195 nM
Ki [3]: 275 nM
pKb [4]: 7.34
Ki [5]: 79.4 nM
Ki [6]: 355 nM
pKb [7]: 7.39
Ki [8]: 107 nM

CN1CCC[C@@H]1[C@@H]1C[S+]([O-])[C@](c2ccccc2)(C2CCCCC2)O1 (stereo in doubt; (-)-7)
pKb [1]: 6.92
Ki [2]: 42.7 nM
Ki [3]: 58.9 nM
pKb [4]: 9.37
Ki [5]: 14.1 nM
Ki [6]: 42.7 nM
pKb [7]: 8.71
Ki [8]: 4.17 nM

CN1CCC[C@H]1[C@H]1C[S+]([O-])[C@](c2ccccc2)(C2CCCCC2)O1 (stereo in doubt; (-)-8)
pKb [1]: 5.19
Ki [2]: 692 nM
Ki [3]: 759 nM
pKb [4]: 5.71
Ki [5]: 537 nM
Ki [6]: 1510 nM
pKb [7]: 5.95
Ki [8]: 1450 nM

CN1CCC[C@H]1[C@H]1C[S+]([O-])[C@](c2ccccc2)(C2CCCCC2)O1 (stereo in doubt; (-)-9)
pKb [1]: 5.13
Ki [2]: 347 nM
Ki [3]: 380 nM
pKb [4]: 6.59
Ki [5]: 93.3 nM
Ki [6]: 501 nM
pKb [7]: 7.1
Ki [8]: 302 nM

C[N+]1(C)CCC[C@@H]1[C@@H]1C[S+]([O-])C(c2ccccc2)(c2ccccc2)O1.[I-] (stereo in doubt; (-)-10)
pKb [1]: 6.53
Ki [2]: 263 nM
Ki [3]: 182 nM
pKb [4]: 7.3
Ki [5]: 53.7 nM
Ki [6]: 282 nM
pKb [7]: 7.5
Ki [8]: 69.2 nM
